pIC50: −log10 of the molar value.
Experiments:
[1] = target: T1, Inhibitor of nuclear factor kappa-B kinase subunit epsilon (Homo sapiens) (UniProt Q14164); test: Inhibition of human IKBKE (1 to 716 residues) assessed as enzyme activity at 1 uM using 33P ATP by radioactive filter binding assay; design: scale not given: the % may be the effect or the level left
T1 sequence (whole entry): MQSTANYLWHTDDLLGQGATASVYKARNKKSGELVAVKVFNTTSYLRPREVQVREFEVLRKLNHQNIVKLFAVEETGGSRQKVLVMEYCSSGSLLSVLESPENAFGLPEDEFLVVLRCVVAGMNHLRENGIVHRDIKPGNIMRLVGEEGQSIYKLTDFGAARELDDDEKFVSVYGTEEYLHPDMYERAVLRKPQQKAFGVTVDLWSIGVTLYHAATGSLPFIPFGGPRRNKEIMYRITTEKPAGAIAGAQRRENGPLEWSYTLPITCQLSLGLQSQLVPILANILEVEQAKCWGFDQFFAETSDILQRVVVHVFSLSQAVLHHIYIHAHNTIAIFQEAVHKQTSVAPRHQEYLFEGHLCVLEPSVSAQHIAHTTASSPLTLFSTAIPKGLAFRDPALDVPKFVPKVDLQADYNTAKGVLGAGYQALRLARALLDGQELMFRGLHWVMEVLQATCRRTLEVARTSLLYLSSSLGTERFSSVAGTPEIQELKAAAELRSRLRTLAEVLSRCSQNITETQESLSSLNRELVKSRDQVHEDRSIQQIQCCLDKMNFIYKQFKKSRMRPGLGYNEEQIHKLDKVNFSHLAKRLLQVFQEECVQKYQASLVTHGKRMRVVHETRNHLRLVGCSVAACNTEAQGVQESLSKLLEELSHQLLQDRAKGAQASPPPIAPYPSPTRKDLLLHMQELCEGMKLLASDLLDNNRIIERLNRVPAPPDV

[2] = target: Mitogen-activated protein kinase 8 (Homo sapiens) (UniProt P45983); test: Inhibition of human JNK1alpha1 assessed as enzyme activity at 1 uM using 33P ATP by radioactive filter binding assay; design: scale not given: the % may be the effect or the level left
[3] = target: MAP kinase-activated protein kinase 2 (Homo sapiens) (UniProt P49137); test: Inhibition of human MAPKAPK2 (46 to 400 residues) assessed as enzyme activity at 1 uM using 33P ATP by radioactive filter binding assay; design: scale not given: the % may be the effect or the level left
[4] = target: MAP kinase-interacting serine/threonine-protein kinase 2 (Homo sapiens) (UniProt Q9HBH9); test: Inhibition of human MNK2alpha (2 to 465 residues) assessed as enzyme activity at 1 uM using 33P ATP by radioactive filter binding assay; design: scale not given: the % may be the effect or the level left
[5] = target: Serine/threonine-protein kinase Nek6 (Homo sapiens) (UniProt Q9HC98); test: Inhibition of human NEK6 (8 to 313 residues) assessed as enzyme activity at 1 uM using 33P ATP by radioactive filter binding assay; design: scale not given: the % may be the effect or the level left
[6] = target: T2, Lymphokine-activated killer T-cell-originated protein kinase (Homo sapiens) (UniProt Q96KB5); test: Inhibition of human PBK (2 to 297 residues) assessed as enzyme activity at 1 uM using 33P ATP by radioactive filter binding assay; design: scale not given: the % may be the effect or the level left
T2 sequence (whole entry): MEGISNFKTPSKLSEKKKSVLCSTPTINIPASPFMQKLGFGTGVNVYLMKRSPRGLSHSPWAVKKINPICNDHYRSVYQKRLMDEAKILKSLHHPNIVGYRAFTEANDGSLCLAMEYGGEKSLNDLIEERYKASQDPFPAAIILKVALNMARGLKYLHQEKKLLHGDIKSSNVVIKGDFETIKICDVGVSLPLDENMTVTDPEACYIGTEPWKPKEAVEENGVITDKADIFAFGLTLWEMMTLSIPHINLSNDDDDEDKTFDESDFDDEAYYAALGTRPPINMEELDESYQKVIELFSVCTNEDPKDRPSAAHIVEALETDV

[7] = target: Serine/threonine-protein kinase pim-1 (Homo sapiens) (UniProt P11309); test: Inhibition of human PIM1 (2 to 313 residues) assessed as enzyme activity at 1 uM using 33P ATP by radioactive filter binding assay; design: scale not given: the % may be the effect or the level left
[8] = target: Serine/threonine-protein kinase pim-2 (Homo sapiens) (UniProt Q9P1W9); test: Inhibition of human PIM2 (2 to 334 residues) assessed as enzyme activity at 1 uM using 33P ATP by radioactive filter binding assay; design: scale not given: the % may be the effect or the level left
[9] = target: T3, Protein kinase C zeta type (Homo sapiens) (UniProt Q05513); test: Inhibition of human PKCzeta (2 to 592 residues) assessed as enzyme activity at 1 uM using 33P ATP by radioactive filter binding assay; design: scale not given: the % may be the effect or the level left
T3 sequence (whole entry): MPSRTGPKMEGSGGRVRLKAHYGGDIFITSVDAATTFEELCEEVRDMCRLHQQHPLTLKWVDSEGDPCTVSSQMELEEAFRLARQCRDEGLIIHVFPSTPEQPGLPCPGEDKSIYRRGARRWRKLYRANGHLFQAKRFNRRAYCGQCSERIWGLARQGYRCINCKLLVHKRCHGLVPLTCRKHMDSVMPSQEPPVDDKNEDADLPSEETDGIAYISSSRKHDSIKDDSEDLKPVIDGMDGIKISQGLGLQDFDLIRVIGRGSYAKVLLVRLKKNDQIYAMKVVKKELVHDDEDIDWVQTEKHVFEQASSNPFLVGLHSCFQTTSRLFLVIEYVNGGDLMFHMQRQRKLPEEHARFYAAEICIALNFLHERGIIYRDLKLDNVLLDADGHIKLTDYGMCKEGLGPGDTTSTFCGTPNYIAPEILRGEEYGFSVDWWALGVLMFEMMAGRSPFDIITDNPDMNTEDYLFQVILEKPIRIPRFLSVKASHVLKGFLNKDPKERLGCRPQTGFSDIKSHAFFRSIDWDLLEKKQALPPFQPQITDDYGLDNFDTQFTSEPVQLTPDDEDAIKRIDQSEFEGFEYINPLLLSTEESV

[10] = target: Mitogen-activated protein kinase 11 (Homo sapiens) (UniProt Q15759); test: Inhibition of SAPK2b (unknown origin) assessed as enzyme activity at 1 uM using 33P ATP by radioactive filter binding assay; design: scale not given: the % may be the effect or the level left
[11] = target: Proto-oncogene tyrosine-protein kinase Src (Homo sapiens) (UniProt P12931); test: Inhibition of human SRC (1 to 536 residues) assessed as enzyme activity at 1 uM using 33P ATP by radioactive filter binding assay; design: scale not given: the % may be the effect or the level left
[12] = target: SRSF protein kinase 1 (Homo sapiens) (UniProt Q96SB4); test: Inhibition of human SRPK1 (2 to 654 residues) assessed as enzyme activity at 1 uM using 33P ATP by radioactive filter binding assay; design: scale not given: the % may be the effect or the level left
[13] = target: Ephrin type-A receptor 2 (Homo sapiens) (UniProt P29317); test: Inhibition of human EPHA2 (591 to 976 residues) assessed as enzyme activity at 1 uM using 33P ATP by radioactive filter binding assay; design: scale not given: the % may be the effect or the level left
[14] = target: Fibroblast growth factor receptor 1 (Homo sapiens) (UniProt P11362); test: Inhibition of human FGFR1 (400 to 820 residues) assessed as enzyme activity at 1 uM using 33P ATP by radioactive filter binding assay; design: scale not given: the % may be the effect or the level left
[15] = target: Phosphatidylinositol 4,5-bisphosphate 3-kinase catalytic subunit gamma isoform (Homo sapiens, UniProt P48736); test: Inhibition of PI3K gamma (unknown origin)

SMILES | Activity [1] | Activity [2] | Activity [3] | Activity [4] | Activity [5] | Activity [6] | Activity [7] | Activity [8] | Activity [9] | Activity [10] | Activity [11] | Activity [12] | Activity [13] | Activity [14] | pIC50 [15]
CCCCc1cc(-c2c[nH]c3ncc(-c4cnn(C5CCNCC5)c4)cc23)nc(N)n1 | -91% | -41% | -23% | -42% | -16% | -96% | -98% | -98% | -42% | -21% | -68% | -14% | -53% | -80% | 
CCCCc1cc(-c2c[nH]c3ncccc23)nc(N)n1 | -48% | -6% | 13% | -15% | -11% | -21% | -61% | -25% | -43% | -5% | 7% | -12% | 17% | 3% | < 5.00
CCc1cc(-c2c[nH]c3ncc(-c4cnn(C5CCNCC5)c4)cc23)nc(N)n1 | -78% | -31% | -3% | -49% | -4% | -95% | -85% | -87% | -18% | -18% | -34% | 3% | -16% | -79% | < 5.00
Nc1nccc(-c2c[nH]c3ncccc23)n1 [MERIOLIN 1] | -22% | -5% | -8% | -35% | -7% | -40% | -62% | -39% | -35% | -4% | -11% | -9% | 25% | -8% | < 5.00

— ChEMBL document CHEMBL3813616, “Discovery of novel 7-azaindoles as PDK1 inhibitors” (Bioorg Med Chem Lett, 2016)
